Measured values as given in patent US7371780B2, “Use of calphostin C to treat drug-resistant tumor cells” (priority 2003, dated 2008).

Key:
[1] = tested on: MCF-7TAX (paclitaxel-resistant) cells; assay: Clonogenic assay, MCF-7TAX cells; format: cell-based, human; details: MCF-7TAX cells; 24 h drug; calphostin C light-activated 2 h
Procedure: The breast cancer cell line MCF-7 (lot HTB-22) was obtained from the American […] (ATCC) and maintained in Dulbecco's H21 medium (MEM) supplemented with 10% Fetal Bovine Serum (FBS) (HyClone, Logan, Utah) in a humidified atmosphere containing 5% CO2 at 37° C. To establish drug resistant cell lines, MCF-7 cells were grown in the presence of either paclitaxel or doxorubicin, beginning at a concentration 1000-fold below that required to kill 50% of the cells (the IC50). The drug concentration was increased 3-fold every two weeks (two passages), with an aliquot of the cells removed for storage in liquid nitrogen before each increase in concentration. Dose escalation continued until all cells died, after which the cells able to tolerate the highest concentration of drug were thawed for subsequent study. In this way, paclitaxel-resistant (MCF-7TAX) and doxorubicin-resistant (MCF-7DOX) cell lines were established. The IC50 for each drug was determined using a clonogenic assay as outlined below. The drug resistant cells were kept in culture in the presence of the maximally tolerated drug dose. Before each experiment, the cell lines were grown for two days in the absence of drug after which fresh medium containing either calphostin C (Sigma Laboratories, Oakville, ON), doxorubicin (Adriamycin PFS®, USP, Mississauga, ON) or paclitaxel (Taxol, Bristol-Myers Squibb, Montreal, QC) was added at the concentrations indicated.
The sensitivity of MCF-7, MCF-7TAX and MCF-7DOX cells to calphostin C, paclitaxel or doxorubicin was determined using a clonogenic assay. Briefly, 2.5×10^5 cells were seeded into 25 cm^2 tissue culture flasks in Dulbecco's H21 medium supplemented with 10% FBS. The cells were allowed to grow overnight, after which the medium was removed and replaced with medium containing varying concentrations of paclitaxel, doxorubicin, or calphostin C (after 2 hours of light exposure to activate the molecule). […] The colonies present in 5 randomly selected fields were then counted by visual inspection. […]

[2] = tested on: MCF-7DOX cells; assay: Microscopic cell morphology, MCF-7DOX; format: cell-based, human; details: data not shown
Procedure: For microscopic observation, cells were seeded onto standard glass coverslips in 10 cm tissue culture plates with 10 ml of H21 medium and grown for 2 days until 40-50% confluence was obtained. After treatment with paclitaxel, doxorubicin or calphostin C, the cells on the glass coverslips were washed twice with PBS (2.7 mM KCl, 1.0 mM KH2PO4, 137 mM NaCl, 10 mM Na2HPO4, pH 7.4) and stained with acridine orange/ethidium bromide (each at 4 μg/ml in PBS) for 10 min at 37° C.. The coverslips were then washed three times in PBS and mounted onto standard glass slides for morphological evaluation. For propidium iodide (PI) staining, the cells on coverslips were washed twice with PBS and fixed in methanol (cooled to −20° C.) for 20 min. Thirty μl of propidium iodide (PI) staining solution (100 μg/ml PI, 0.1% sodium citrate, 100 μg/ml RNase A and 0.3% Nonidet P-40) were then applied to the coverslips for 5 min. […] The cells were then examined using a Zeiss Axiovert 100 inverted fluorescence microscope. […] For each sample, the number of dead cells was determined by visualization after ethidium bromide staining, whereby only dead cells which have lost membrane integrity allow entry of cell-impermeable ethidium bromide into cells to complex with DNA and induce bright red fluorescence. […] The images were recorded and overlayed using Northern Eclipse software (Empix Imaging Inc., Mississauga, ON).

[3] = tested on: MCF-7DOX cells; assay: Flow cytometric sub-G1 DNA content, MCF-7DOX; format: cell-based, human; details: 100 nM calphostin C
Procedure: For flow cytometric analysis, cells at about 50% to 60% confluence were released from their flasks by trypsin treatment and washed with PBS. After centrifugation at 1000 rpm for 5 min, cells were then fixed by resuspension in 75% ethanol for 2 hours, collected by centrifugation, and resuspended in PI staining solution (see above) for 1 h. For each sample, approximately 2×10^4 cells were analyzed using a Beckman Coulter Epics® Elite flow cytometer. Fluorescence intensity upon stimulation with an argon-ion laser at 488 nm was measured using the PMT4 channel (625DL filter) and plotted against cell number. The percentage of cells with a sub-G1 DNA content was determined by the flow cytometer, adjusting the gates such that only cells with a fluorescence lower than the peak for untreated cells in G1 are counted (see FIG. 4).

[4] = tested on: human 293T embryonic kidney cells; assay: Death and cytoplasmic vacuolization, 293T; format: cell-based; details: data not shown
[5] = tested on: Chinese hamster ovary (CHO) cells; assay: Death and cytoplasmic vacuolization, CHO; format: cell-based; details: data not shown

COc1c(C[C@@H](C)OC(=O)Oc2ccc(O)cc2)c2c3c(C[C@@H](C)OC(=O)c4ccccc4)c(OC)c(=O)c4c(O)cc(OC)c(c5c(OC)cc(O)c(c1=O)c52)c43 [calphostin C]
IC50 [1]: 9.2 nM | concentration giving cytoplasmic vacuolization equal to MCF-7 and MCF-7TAX cells at 50 nM [2]: 300 nM | time of strong increase in percentage of sub-G1 cells after treatment ([3]; MCF-7ADR (so in the source), 2 h light): 8 h | percentage of cells with sub-G1 DNA content versus similarly treated MCF-7 or MCF-7TAX cells ([3]; MCF-7DOX): significantly lower | induction of death and cytoplasmic vacuolization [4]: induce both death and cytoplasmic vacuolization | induction of death and cytoplasmic vacuolization [5]: induce both death and cytoplasmic vacuolization
